Assay [1] has as its system Trichoderma reesei. In words: Antimicrobial activity against Trichoderma reesei assessed as growth inhibition by microdilution method. Format: functional. (In general: Broth dilution looks for growth in wells or tubes with falling amounts of substance.)
The subject of assay [2] is Klebsiella aerogenes. Nature of the assay: Antimicrobial activity against Enterobacter aerogenes assessed as growth inhibition by microdilution method.
Assay [3] has as its system Aspergillus flavus. Nature of the assay: Antimicrobial activity against Aspergillus flavus assessed as growth inhibition by microdilution method. Format: functional.
Assay [4] deals with Staphylococcus aureus. In words: Antimicrobial activity against Staphylococcus aureus assessed as growth inhibition by microdilution method.
Assay [5] has as its system Salmonella typhimurium. In words: Antimicrobial activity against Salmonella enterica subsp. enterica serovar Typhimurium assessed as growth inhibition by microdilution method.
The test system of assay [6] is Curvularia australiensis. In words: Antimicrobial activity against Curvularia australiensis assessed as growth inhibition by microdilution method. In kind it is functional.
The subject of assay [7] is Escherichia coli. Nature of the assay: Antimicrobial activity against Escherichia coli assessed as growth inhibition by microdilution method.
Assay [8] concerns Aspergillus niger. Nature of the assay: Antimicrobial activity against Aspergillus niger assessed as growth inhibition by microdilution method. Format: functional.
The subject of assay [9] is Alternaria alternata. Nature of the assay: Antimicrobial activity against Alternaria alternata assessed as growth inhibition by microdilution method. Format: functional.
In assay [10] the test system is Streptococcus pyogenes. Nature of the assay: Antimicrobial activity against Streptococcus pyogenes assessed as growth inhibition by microdilution method.
The test system of assay [11] is Bacillus subtilis. Nature of the assay: Antimicrobial activity against Bacillus subtilis assessed as growth inhibition by microdilution method.

A word on the MIC: it is the lowest concentration found to suppress growth. Take `Cc1cccc2cc3c(nc12)SC(Nc1ccccc1F)=NN=C3`: the MIC in assay [1] was found to be 1000 µg/mL; in assay [2], 500 µg/mL; in assay [3], 1000 µg/mL; in assay [4], 1000 µg/mL; in [5], 250 µg/mL; in assay [6], 1000 µg/mL. Also, the MIC in [7] is 500 µg/mL; in assay [8], above 1000 µg/mL; in [9], 1000 µg/mL; in [10], 1000 µg/mL; in assay [11] it was 500 µg/mL.
As for `Cc1cccc(C)c1NC1=NN=Cc2cc3cccc(C)c3nc2S1`, the MIC in assay [1] came to 250 µg/mL; in assay [2] it was 1000 µg/mL; in assay [3], 500 µg/mL; in [4] it was 1000 µg/mL; in [5], 1000 µg/mL; in [6] it was 1000 µg/mL. Also, the minimum inhibitory concentration (MIC) in assay [7] worked out at 1000 µg/mL; in [8], 1000 µg/mL; in [9], 500 µg/mL; in assay [10], 1000 µg/mL; in [11], 1000 µg/mL.
`Cc1ccc2nc3c(cc2c1)C=NN=C(Nc1ccc(F)cc1)S3`: the MIC in [1] is 1000 µg/mL; in assay [2], 125 µg/mL; in [3] it was above 1000 µg/mL; in assay [4] it was 250 µg/mL; in [5] it was 250 µg/mL; in [6], above 1000 µg/mL. Besides, the MIC is 500 µg/mL in [7]; 1000 µg/mL in assay [8]; 1000 µg/mL in [9]; 500 µg/mL in assay [10]; 250 µg/mL in [11].
`Cc1c(Cl)ccc2cc3c(nc12)SC(Nc1ccccc1)=NN=C3`: the MIC in assay [1] was 250 µg/mL; in assay [2], 60 µg/mL; in assay [3] it was 500 µg/mL; in [4], above 1000 µg/mL; in assay [5] it was above 1000 µg/mL; in [6], 1000 µg/mL. In addition, the minimal inhibitory concentration (MIC) in assay [7] was found to be 60 µg/mL; in assay [8], 1000 µg/mL; in [9], 250 µg/mL; in [10] it was 60 µg/mL; in assay [11], 125 µg/mL.
Regarding `Cc1ccccc1NC1=NN=Cc2cc3cccc(C)c3nc2S1`, the MIC in assay [1] came out at 125 µg/mL; in assay [2], 1000 µg/mL; in [3], 125 µg/mL; in [4], 1000 µg/mL; in assay [5], 1000 µg/mL; in assay [6] it was 500 µg/mL. Also, the MIC in [7] amounted to 1000 µg/mL; in assay [8] it was 500 µg/mL; in assay [9] it was 1000 µg/mL; in assay [10], 1000 µg/mL; in assay [11], 1000 µg/mL.
On to `COc1ccc2nc3c(cc2c1)C=NN=C(Nc1ccc(F)cc1)S3`, for which the MIC in [1] was 500 µg/mL; in [2] it was 60 µg/mL; in assay [3], above 1000 µg/mL; in [4], 500 µg/mL; in [5], 250 µg/mL; in [6], 1000 µg/mL. Also, the MIC in assay [7] came out at 500 µg/mL; in assay [8], 1000 µg/mL; in assay [9], 60 µg/mL; in assay [10] it was 500 µg/mL; in [11], 500 µg/mL.
Take `Cc1ccc2nc3c(cc2c1)C=NN=C(Nc1cccc(Cl)c1)S3`: the MIC in assay [1] came to 500 µg/mL; in [2], 250 µg/mL; in assay [3] it was 1000 µg/mL; in [4], 1000 µg/mL; in assay [5], 1000 µg/mL; in assay [6] it was 1000 µg/mL. Besides, the MIC in assay [7] is 1000 µg/mL; in [8], 1000 µg/mL; in [9], 500 µg/mL; in [10], above 1000 µg/mL; in [11] it was 1000 µg/mL.
As for `CCc1ccc(NC2=NN=Cc3cc4cccc(C)c4nc3S2)cc1`, the MIC worked out at 500 µg/mL in [1]; 1000 µg/mL in assay [2]; 1000 µg/mL in assay [3]; 500 µg/mL in assay [4]; 1000 µg/mL in [5]; 500 µg/mL in assay [6]. For the same compound, the MIC in assay [7] turned out to be 500 µg/mL; in assay [8] it was 500 µg/mL; in assay [9], 500 µg/mL; in [10], 500 µg/mL; in assay [11], 250 µg/mL.
Regarding `COc1ccc2nc3c(cc2c1)C=NN=C(Nc1ccccc1F)S3`, the MIC in [1] was 250 µg/mL; in assay [2], above 1000 µg/mL; in assay [3], 500 µg/mL; in assay [4], 500 µg/mL; in assay [5] it was above 1000 µg/mL; in assay [6], 500 µg/mL. The MIC stood at 1000 µg/mL in assay [7]; 500 µg/mL in assay [8]; 125 µg/mL in [9]; 500 µg/mL in assay [10]; 1000 µg/mL in [11].
With `Cc1cccc2cc3c(nc12)SC(Nc1cccc(Cl)c1)=NN=C3`, the MIC in [1], in [2], in assay [3], in [4], in [5] and in assay [6] was 1000 µg/mL each time. Moreover, the minimal inhibitory concentration (MIC) in assay [7] amounted to 1000 µg/mL; in assay [8], 500 µg/mL; in [9] it was 500 µg/mL; in assay [10], 1000 µg/mL; in assay [11] it was 1000 µg/mL.
Consider `Cc1ccc(NC2=NN=Cc3cc4ccc(Cl)c(C)c4nc3S2)cc1`, for which the MIC in [1] worked out at 250 µg/mL; in assay [2] it was 500 µg/mL; in assay [3], 1000 µg/mL; in [4] it was 500 µg/mL; in [5], 500 µg/mL; in assay [6], 1000 µg/mL. The MIC is 250 µg/mL in [7]; 1000 µg/mL in [8]; 500 µg/mL in assay [9]; 250 µg/mL in [10]; 125 µg/mL in assay [11].
Regarding `Cc1ccc2nc3c(cc2c1)C=NN=C(Nc1ccc(Cl)cc1)S3`, the MIC in assay [1] was 500 µg/mL; in [2], 1000 µg/mL; in assay [3] it was 1000 µg/mL; in assay [4], 1000 µg/mL; in assay [5] it was above 1000 µg/mL; in assay [6], 500 µg/mL. The MIC in assay [7] was above 1000 µg/mL; in assay [8], 500 µg/mL; in assay [9], 30 µg/mL; in assay [10] it was above 1000 µg/mL; in assay [11], 1000 µg/mL.
As for `Cc1cccc2cc3c(nc12)SC(Nc1ccccc1Cl)=NN=C3`, the MIC in assay [1] was 1000 µg/mL; in assay [2], above 1000 µg/mL; in [3], 1000 µg/mL; in assay [4], above 1000 µg/mL; in [5], above 1000 µg/mL; in assay [6], 500 µg/mL. In addition, the MIC is above 1000 µg/mL in assay [7]; above 1000 µg/mL in assay [8]; 1000 µg/mL in assay [9]; above 1000 µg/mL in assay [10]; above 1000 µg/mL in [11].
In the case of `COc1ccc2nc3c(cc2c1)C=NN=C(NCCN1CCOCC1)S3`, the MIC in assay [1] stood at 1000 µg/mL; in [2] it was 1000 µg/mL; in assay [3], 500 µg/mL; in assay [4], 500 µg/mL; in assay [5] it was 500 µg/mL; in assay [6], 1000 µg/mL. Also, the MIC was determined as 500 µg/mL in assay [7]; 1000 µg/mL in assay [8]; 1000 µg/mL in assay [9]; 500 µg/mL in [10]; 500 µg/mL in assay [11].
`CCc1ccc(NC2=NN=Cc3cc4ccc(Cl)c(C)c4nc3S2)cc1`: the minimum inhibitory concentration (MIC) in assay [1] is 1000 µg/mL; in assay [2], 1000 µg/mL; in [3], above 1000 µg/mL; in assay [4], 1000 µg/mL; in assay [5], 1000 µg/mL; in [6], above 1000 µg/mL. In addition, the MIC in assay [7] is 1000 µg/mL; in assay [8], 1000 µg/mL; in [9] it was 1000 µg/mL; in assay [10], 500 µg/mL; in assay [11] it was 125 µg/mL.
As to `Cc1ccc(NC2=NN=Cc3cc4cc(C)ccc4nc3S2)c(C)c1`, the MIC in assay [1] came out at 125 µg/mL; in [2], 500 µg/mL; in assay [3], 500 µg/mL; in [4], 500 µg/mL; in assay [5], 500 µg/mL; in assay [6], 500 µg/mL. For the same compound, the MIC in [7] was found to be 500 µg/mL; in assay [8], 1000 µg/mL; in assay [9], 500 µg/mL; in assay [10], 500 µg/mL; in [11], 500 µg/mL.
As for `Cc1ccc2nc3c(cc2c1)C=NN=C(NCCN1CCOCC1)S3`, the MIC came to 250 µg/mL in assay [1]; 1000 µg/mL in assay [2]; 500 µg/mL in assay [3]; 1000 µg/mL in assay [4]; 1000 µg/mL in assay [5]; 500 µg/mL in assay [6]. Further, the MIC in assay [7] was 500 µg/mL; in assay [8], 500 µg/mL; in [9] it was 500 µg/mL; in assay [10], above 1000 µg/mL; in assay [11], above 1000 µg/mL.
With `Cc1ccc2nc3c(cc2c1)C=NN=C(Nc1ccccc1F)S3`, the MIC was 1000 µg/mL in assay [1]; 60 µg/mL in assay [2]; above 1000 µg/mL in [3]; 500 µg/mL in [4]; 1000 µg/mL in assay [5]; above 1000 µg/mL in assay [6]. Moreover, the minimal inhibitory concentration (MIC) in assay [7] is 1000 µg/mL; in assay [8] it was above 1000 µg/mL; in [9] it was 1000 µg/mL; in [10] it was 1000 µg/mL; in assay [11], 1000 µg/mL.
In the case of `Cc1c(Cl)ccc2cc3c(nc12)SC(Nc1ccccc1Cl)=NN=C3`, the minimum inhibitory concentration (MIC) was determined as 60 µg/mL in assay [1]; 500 µg/mL in [2]; 500 µg/mL in assay [3]; 500 µg/mL in [4]; 500 µg/mL in assay [5]; 250 µg/mL in [6]. The MIC in [7] came to 500 µg/mL; in assay [8], 500 µg/mL; in assay [9], 60 µg/mL; in [10], 500 µg/mL; in assay [11], 500 µg/mL.
In the case of `Cc1ccc2nc3c(cc2c1)C=NN=C(Nc1ccccc1)S3`, the MIC in assay [1] is 500 µg/mL; in assay [2] it was 500 µg/mL; in assay [3] it was 500 µg/mL; in assay [4] it was 1000 µg/mL; in assay [5] it was 500 µg/mL; in assay [6], above 1000 µg/mL. The MIC is above 1000 µg/mL in assay [7]; 1000 µg/mL in assay [8]; 1000 µg/mL in [9]; 500 µg/mL in assay [10]; 1000 µg/mL in assay [11].

The record behind these values is ChEMBL document CHEMBL3046732, “Synthesis and biological evaluation of new [1,3,4]thiadiazepino[7,6-b]quinolin-2-amines as potent anti-microbial agents” (2013).
